# Reference: patent publication US5854039A, “Transformation of pichia methanolica” (ZymoGenetics, Inc., priority 1997, dated 1998)
# Tested on: P. methanolica cells (strain CBS6515), UV-mutagenized
# Assay: Nystatin enrichment for auxotrophic mutants, titering for colony forming units
# Type: cell-based, Pichia methanolica
# Conditions: 1 mg nystatin added to remainder of 500 ml culture in minimal broth, one additional hour with shaking, nystatin-treated versus control cells
# Protocol: Large-scale mutagenesis was then carried out using a 2-second UV exposure to provide about 20% killing. Cells were plated at approximately 10^4 cells/plate onto eight YEPD plates that were supplemented with 100 mg/L each of uracil, adenine, and leucine, which were added to supplement the growth of potential auxotrophs having the cognate deficiencies. Following UV exposure the plates were wrapped in foil and incubated overnight at 30° C. The following day the colonies on the plates (~10^5 total) were resuspended in water and washed once with water. An amount of cell suspension sufficient to give an OD600 of 0.1-0.2 was used to inoculate 500 ml of minimal broth made with yeast nitrogen base without amino acids or ammonia, supplemented with 1% glucose and 400 μg/L biotin. The culture was placed in a 2.8 L baffled Bell flask and shaken vigorously overnight at 30° C. The following day the cells had reached an OD600 of ~1.0-2.0. The cells were pelleted and resuspended in 500 ml of minimal broth supplemented with 5 g/L ammonium sulfate. The cell suspension was placed in a 2.8 L baffled Bell flask and shaken vigorously at 30° C. for 6 hours. 50 ml of the culture was set aside in a 250-ml flask as a control, and to the remainder of the culture was added 1 mg nystatin to select for auxotrophic mutants (Snow, Nature 211:206-207, 1966). […]
compound,measurement,value
C[C@@H]1[C@H](O)[C@@H](C)/C=C/C=C/CC/C=C/C=C/C=C/C=C/C(O[C@H]2O[C@H](C)[C@@H](O)[C@H](N)[C@@H]2O)CC2O[C@](O)(CC(O)C(O)CCC(O)CC(O)CC(O)CC(=O)O[C@H]1C)CC(O)C2C(=O)O (stereo partly shown) [nystatin],decrease in the number of viable cells (factor),10^4
